Numbered stars: 1 amine (or outer) side, 2 acyl side, 3 side chain; on linkers, the order of the positions; unused ones are H or OH. Bridge positions count the residues as written; N and C are the ends. Square brackets hold non-standard residues; d marks the D form. Peptide text beside a SMILES is read from it. * marks the point of attachment. hTyr(3S-OH,4S-OH,3'-OSO3H) = N[C@H](C(=O)O)[C@H](O)[C@@H](O)c1ccc(O)c(OS(=O)(=O)O)c1; Orn(4R-OH,5R-OH) = O=C([C@H](C[C@@H](O)[C@@H](O)N[*:3])N[*:1])[*:2]; Pro(3S-OH,4S-Me) = C[C@H]1CN[C@H](C(=O)O)[C@H]1O; X1 = CCCCCOc1ccc(-c2cc(-c3ccc(C(=O)*)cc3)no2)cc1; Gln(3R-OH) = NC(=O)C[C@@H](O)[C@H](N)C(=O)O; Hyp = O=C(O)[C@@H]1C[C@@H](O)CN1
Columns and labels:
[1] = Safety assessments; type: in vivo, human; conditions: six AEs reported by four subjects of 19; single 100 mg IV dose
[2] = test system: plasma protein; assay: Micafungin plasma protein binding by ultrafiltration; type: in vitro ADME, human; conditions: 37 °C, range
[3] = test system: plasma protein, primarily albumin; conditions: primarily to albumin; ref Astellas Pharma; Hebert et al. [2005b]; cited from earlier work
[4] = ref Dowell et al. [2007]; cited from earlier work

Row | Compound | Adverse events: seriousness and relation to drug [1] | Protein binding ([2]; healthy subjects, measurable in three subjects) | Protein binding ([2]; subjects with severe hepatic dysfunction, measurable in five subjects) | Protein bound in plasma [3] [%] | Lower exposure in subjects with severe hepatic dysfunction compared with healthy controls [4] [%]
1 | CCCCCOc1ccc(-c2cc(-c3ccc(C(=O)N[C@H]4C[C@@H](O)[C@@H](O)NC(=O)[C@@H]5[C@@H](O)[C@@H](C)CN5C(=O)[C@H]([C@H](O)CC(N)=O)NC(=O)[C@H]([C@H](O)[C@@H](O)c5ccc(O)c(OS(=O)(=O)O)c5)NC(=O)[C@@H]5C[C@@H](O)CN5C(=O)[C@H]([C@@H](C)O)NC4=O)cc3)no2)cc1 [micafungin, Micafungin] (X1-[Orn(4R-OH,5R-OH)]T[Hyp][hTyr(3S-OH,4S-OH,3'-OSO3H)][Gln(3R-OH)][Pro(3S-OH,4S-Me)]; lactam 1-C) | None of these AEs was considered to be serious or to be related to micafungin | 92.4–99.0% | 86.1–97.6% | > 99 | 
2 | anidulafungin |  |  |  |  | 33
